Measurements: US20250122219A1 (priority 2023, published 2025)

Experiments:
[1] = test system: HIV-1 (IIIB); assay: Antiviral assay in MT-4 cells; assay type: cell-based; conditions: Human immunodeficiency virus 1, MT4, 120 h; HIV-1 IIIB in MT-4 cells, 5 days incubation, Cell Titer Glo; read-out: MT4 EC50
Experimental: (§1) Compounds were tested in a high-throughput 384-well assay format for their ability to inhibit the replication of HIV-1 (IIIB) in MT-4 cells. Compounds were serially diluted (1.3) in DMSO on 384-well polypropylene plates and further diluted 200-fold into complete RPMI media (10% FBS, 1% P/S) using the Biotek Micro Flow and Labcyte ECHO acoustic dispenser. Each plate contained up to 8 test compounds, with negative (No Drug Control) and 5 μM AZT positive controls. MT-4 cells were pre-infected with 10 μL of either RPMI (mock-infected) or a fresh 1:250 dilution of HIV-1 IIIB concentrated virus stock. Infected and uninfected MT-4 cells were further diluted in complete RPMI media and added to each plate using a Micro Flow dispenser. After 5 days incubation in a humidified and temperature controlled incubator (37° C.), Cell Titer Glo (Promega) was added to the assay plates and chemiluminescence read using an Envision plate-reader.

[2] = Cytotoxicity assay in MT-4 cells; assay type: cell-based; conditions: human; uninfected MT-4 cells, 5 days incubation, Cell Titer Glo; read-out: MT4 CC50
Experimental: as §1
Assays were performed as above except uninfected MT-4 cells were added to each well containing test compound. In addition, […] puromycin was added to the last column of each assay plate to assess a base level of cytotoxicity.

Row | Structure (SMILES) | EC50 [1] [nM] | CC50 at 5 days [2] [nM]
1 | CCCOC(=O)OCOc1c2n(cc(C(=O)NCc3ccc(F)cc3F)c1=O)[C@@H]1CN(C2=O)[C@@H](C)CC[C@]12CC(OC)=NO2 [Example 175, (((3′S,5S,7′R)-10′-((2,4-difluorobenzyl)carbamoyl)-3-methoxy-3′-methyl-1′,11′-dioxo-1′,4′,5′,11′-tetrahydro-3′H,4H,7′H-spiro[isoxazole-5,6′-[2,7]methanopyrido[1,2-a][1,4]diazonin]-12′-yl)oxy)methyl propyl carbonate] | 2.06 | 23300
2 | CCCCCOC(=O)OCOc1c2n(cc(C(=O)NCc3ccc(F)cc3F)c1=O)[C@@H]1CN(C2=O)[C@@H](C)CC[C@]12CC(OC)=NO2 [Example 180, (((3′S,5S,7′R)-10′-((2,4-difluorobenzyl)carbamoyl)-3-methoxy-3′-methyl-1′,11′-dioxo-1′,4′,5′,11′-tetrahydro-3′H,4H,7′H-spiro[isoxazole-5,6′-[2,7]methanopyrido[1,2-a][1,4]diazonin]-12′-yl)oxy)methyl pentyl carbonate] | 0.274 | ≥ 50000
3 | COC1=NO[C@@]2(CC[C@H](C)N3C[C@H]2n2cc(C(=O)NCc4ccc(F)cc4F)c(=O)c(OC(=O)CCCC(=O)O)c2C3=O)C1 [Example 73, 5-(((3′S,5S,7′R)-10′-((2,4-difluorobenzyl)carbamoyl)-3-methoxy-3′-methyl-1′,11′-dioxo-1′,4′,5′,11′-tetrahydro-3′H,4H,7′H-spiro[isoxazole-5,6′-[2,7]methanopyrido[1,2-a][1,4]diazonin]-12′-yl)oxy)-5-oxopentanoic acid] | 0.797 | 20200
4 | CC1=NO[C@@]2(CC[C@H](C)N3C[C@H]2n2cc(C(=O)NCc4ccc(F)cc4F)c(=O)c(OC(=O)OCCCCCC(C)C)c2C3=O)C1 [Example 156, (3′S,5S,7′R)-10′-((2,4-difluorobenzyl)carbamoyl)-3,3′-dimethyl-1′,11′-dioxo-1′,4′,5′,11′-tetrahydro-3′H,4H,7′H-spiro[isoxazole-5,6′-[2,7]methanopyrido[1,2-a][1,4]diazonin]-12′-yl (6-methylheptyl) carbonate] | 2 | 14700
5 | CCCCCCCCCCCC(=O)OCOc1c2n(cc(C(=O)NCc3ccc(F)cc3F)c1=O)[C@@H]1CN(C2=O)[C@@H](C)CC[C@]12CC(OC)=NO2 [Example 101, (((3′S,5S,7′R)-10′-((2,4-difluorobenzyl)carbamoyl)-3-methoxy-3′-methyl-1′,11′-dioxo-1′,4′,5′,11′-tetrahydro-3′H,4H,7′H-spiro[isoxazole-5,6′-[2,7]methanopyrido[1,2-a][1,4]diazonin]-12′-yl)oxy)methyl dodecanoate] | 5.79 | ≥ 50000
6 | COC1=NO[C@@]2(CC[C@H](C)N3C[C@H]2n2cc(C(=O)NCc4ccc(F)cc4F)c(=O)c(OCOC(=O)CCCCC(C)C)c2C3=O)C1 [Example 114, (((3′S,5S,7′R)-10′-((2,4-difluorobenzyl)carbamoyl)-3-methoxy-3′-methyl-1′,11′-dioxo-1′,4′,5′,11′-tetrahydro-3′H,4H,7′H-spiro[isoxazole-5,6′-[2,7]methanopyrido[1,2-a][1,4]diazonin]-12′-yl)oxy)methyl 6-methylheptanoate] | 3.89 | 19700
7 | CCCCCCCC(=O)Oc1c2n(cc(C(=O)NCc3ccc(F)cc3F)c1=O)[C@@H]1CN(C2=O)[C@@H](C)CC[C@]12CC(C)=NO2 [Example 41, (3′S,5S,7′R)-10′-((2,4-difluorobenzyl)carbamoyl)-3,3′-dimethyl-1′,11′-dioxo-1′,4′,5′,11′-tetrahydro-3′H,4H,7′H-spiro[isoxazole-5,6′-[2,7]methanopyrido[1,2-a][1,4]diazonin]-12′-yl octanoate] | 0.319 | 11500
8 | CCCC(=O)OCOc1c2n(cc(C(=O)NCc3ccc(F)cc3F)c1=O)[C@@H]1CN(C2=O)[C@@H](C)CC[C@]12CC(C)=NO2 [Example 88, (((3′S,5S,7′R)-10′-((2,4-difluorobenzyl)carbamoyl)-3,3′-dimethyl-1′,11′-dioxo-1′,4′,5′,11′-tetrahydro-3′H,4H,7′H-spiro[isoxazole-5,6′-[2,7]methanopyrido[1,2-a][1,4]diazonin]-12′-yl)oxy)methyl butyrate] | 1.78 | 20400

Second part, led by results:

Row | EC50 [1] [nM] | Structure (SMILES) | CC50 at 5 days [2] [nM]
9 | 3.73 | CC1=NO[C@@]2(CC[C@H](C)N3C[C@H]2n2cc(C(=O)NCc4ccc(F)cc4F)c(=O)c(OCOC(=O)OCCCCCCCC(C)C)c2C3=O)C1 [Example 211, (((3′S,5S,7′R)-10′-((2,4-difluorobenzyl)carbamoyl)-3,3′-dimethyl-1′,11′-dioxo-1′,4′,5′,11′-tetrahydro-3′H,4H,7′H-spiro[isoxazole-5,6′-[2,7]methanopyrido[1,2-a][1,4]diazonin]-12′-yl)oxy)methyl (8-methylnonyl) carbonate] | 36700
10 | 0.819 | CCCCCCCOC(=O)Oc1c2n(cc(C(=O)NCc3ccc(F)cc3F)c1=O)[C@@H]1CN(C2=O)[C@@H](C)CC[C@]12CC(C)=NO2 [Example 133, (3′S,5S,7′R)-10′-((2,4-difluorobenzyl)carbamoyl)-3,3′-dimethyl-1′,11′-dioxo-1′,4′,5′,11′-tetrahydro-3′H,4H,7′H-spiro[isoxazole-5,6′-[2,7]methanopyrido[1,2-a][1,4]diazonin]-12′-yl heptyl carbonate] | 16700
11 | 0.573 | CC1=NO[C@@]2(CC[C@H](C)N3C[C@H]2n2cc(C(=O)NCc4ccc(F)cc4F)c(=O)c(OC(=O)OCCCC(C)C)c2C3=O)C1 [Example 152, (3′S,5S,7′R)-10′-((2,4-difluorobenzyl)carbamoyl)-3,3′-dimethyl-1′,11′-dioxo-1′,4′,5′,11′-tetrahydro-3′H,4H,7′H-spiro[isoxazole-5,6′-[2,7]methanopyrido[1,2-a][1,4]diazonin]-12′-yl (4-methylpentyl) carbonate] | 14900
12 | 1.78 | COC1=NO[C@@]2(CC[C@H](C)N3C[C@H]2n2cc(C(=O)NCc4ccc(F)cc4F)c(=O)c(OCOC(=O)CCCC(C)C)c2C3=O)C1 [Example 113, (((3′S,5S,7′R)-10′-((2,4-difluorobenzyl)carbamoyl)-3-methoxy-3′-methyl-1′,11′-dioxo-1′,4′,5′,11′-tetrahydro-3′H,4H,7′H-spiro[isoxazole-5,6′-[2,7]methanopyrido[1,2-a][1,4]diazonin]-12′-yl)oxy)methyl 5-methylhexanoate] | 20300
13 | 6.29 | COC1=NO[C@@]2(CC[C@H](C)N3C[C@H]2n2cc(C(=O)NCc4ccc(F)cc4F)c(=O)c(OCOC(=O)OC(C)C)c2C3=O)C1 [Example 198, (((3′S,5S,7′R)-10′-((2,4-difluorobenzyl)carbamoyl)-3-methoxy-3′-methyl-1′,11′-dioxo-1′,4′,5′,11′-tetrahydro-3′H,4H,7′H-spiro[isoxazole-5,6′-[2,7]methanopyrido[1,2-a][1,4]diazonin]-12′-yl)oxy)methyl isopropyl carbonate] | ≥ 50000
14 | 3.87 | CC1=NO[C@@]2(CC[C@H](C)N3C[C@H]2n2cc(C(=O)NCc4ccc(F)cc4F)c(=O)c(OCOC(=O)OCC(C)C)c2C3=O)C1 [Example 199, (((3′S,5S,7′R)-10′-((2,4-difluorobenzyl)carbamoyl)-3,3′-dimethyl-1′,11′-dioxo-1′,4′,5′,11′-tetrahydro-3′H,4H,7′H-spiro[isoxazole-5,6′-[2,7]methanopyrido[1,2-a][1,4]diazonin]-12′-yl)oxy)methyl isobutyl carbonate] | 15500
15 | 2.84 | CC1=NO[C@@]2(CC[C@H](C)N3C[C@H]2n2cc(C(=O)NCc4ccc(F)cc4F)c(=O)c(OCOC(=O)CCCCCC(C)C)c2C3=O)C1 [Example 117, (((3′S,5S,7′R)-10′-((2,4-difluorobenzyl)carbamoyl)-3,3′-dimethyl-1′,11′-dioxo-1′,4′,5′,11′-tetrahydro-3′H,4H,7′H-spiro[isoxazole-5,6′-[2,7]methanopyrido[1,2-a][1,4]diazonin]-12′-yl)oxy)methyl 7-methyloctanoate] | ≥ 50000
16 | 0.898 | CCOC(=O)Oc1c2n(cc(C(=O)NCc3ccc(F)cc3F)c1=O)[C@@H]1CN(C2=O)[C@@H](C)CC[C@]12CC(OC)=NO2 [Example 124, (3′S,5S,7′R)-10′-((2,4-difluorobenzyl)carbamoyl)-3-methoxy-3′-methyl-1′,11′-dioxo-1′,4′,5′,11′-tetrahydro-3′H,4H,7′H-spiro[isoxazole-5,6′-[2,7]methanopyrido[1,2-a][1,4]diazonin]-12′-yl ethyl carbonate] | 17100
17 | 2.47 | CC1=NO[C@@]2(CC[C@H](C)N3C[C@H]2n2cc(C(=O)NCc4ccc(F)cc4F)c(=O)c(OCOC(=O)OCCCCC(C)C)c2C3=O)C1 [Example 205, (((3′S,5S,7′R)-10′-((2,4-difluorobenzyl)carbamoyl)-3,3′-dimethyl-1′,11′-dioxo-1′,4′,5′,11′-tetrahydro-3′H,4H,7′H-spiro[isoxazole-5,6′-[2,7]methanopyrido[1,2-a][1,4]diazonin]-12′-yl)oxy)methyl (5-methylhexyl) carbonate] | 23100
